PMC7908975, “Antioxidant and Anti-Inflammatory Activity of Citrus Flavanones Mix and Its Stability after In Vitro Simulated Digestion” (Antioxidants, 2021)

How the values were obtained:
[1] = system: NO release in Caco-2 cells; assay: NO release (Griess reaction), IL-1β stimulated Caco-2 transwell model; type: cell-based, human; settings: 24 h
Experimental: (§1) Experiments were carried out on transwell models (CacoReady™, Readycell, Barcelona, Spain) consisting of Caco-2 cells (8.5 × 10^4 cells/cm^2, passage number 41–58) seeded on polyester microporous filters in 24-well HTS plates (6.5 mm diameter, 0.33 cm^2 area and 0.4 µm of pore size) (Corning Incorporated, Corning, NY, USA). Completed Dulbecco’s Modified Eagle Medium (DMEM), prepared according to Denaro et al., was added on the apical (0.3 mL) and basolateral side (0.9 mL) of the Transwell® insert. After 21 days of culture, Caco-2 cells were completely differentiated and polarized, such that their phenotype resembled the morphological and functional features of mature enterocytes lining the small intestine.
(§2) Before starting with the anti-inflammatory experiments, the monolayer integrity was checked by measuring the trans-epithelial electrical resistance (TEER) with a Millicell® ERS-2 V/ohmmeter (Merck Millipore, Darmstadt, Germany) equipped with STX 100C electrode (World Precision Instruments, Sarasota, FL, USA). Caco-2-plated filters with epithelial resistance ≥800 Ω/cm^2 were used.
(§3) The anti-inflammatory activity of FM and digested FM (DFM) was evaluated on Caco-2 transwell model, according to Tesoriere et al., with some modifications. Briefly, 1.4 mM FM (see Section 2.3) was diluted 140 times in completed DMEM, obtaining a 10 µM FM (DMSO < 0.1%). […]
(§4) IL-6 and IL-8 release were measured by high-sensitivity human ELISA kits (Cymax IL-6 YIF-LF-EK0260 and Cymax IL-8YIF-LF-EK0262, Ab Frontiers, Adipogen Corporation, 9853 Pacific Heights Blvd., Suite L San Diego, CA, USA) according to the manufacturer’s recommendations, whereas NO release was estimated according to Tesoriere et al. by Griess reaction. […] Absorbance was recorded at 550 nm using a microplate reader (Multiskan GO, Thermo Scientific, Waltham, MA, USA). Results were expressed as µM NO extrapolating the results by a reference standard curve of sodium nitrite (1.0–15 µM).

[2] = system: IL-8 release in Caco-2 cells; assay: IL-8 release, IL-1β stimulated Caco-2 transwell model; type: cell-based, human; settings: 24 h
Experimental: as §1, §2, §3, §4

[3] = system: IL-6 release in Caco-2 cells; assay: IL-6 release, IL-1β stimulated Caco-2 transwell model; type: cell-based, human; settings: 24 h
Experimental: as §1, §2, §3, §4

[4] = In vitro simulated human gastric and duodenal digestion with LC-DAD-ESI-MS/MS quantification; type: in vitro ADME; settings: with respect to starting FM 10 µM; for DFM (µM): flavanone in duodenal digested flavanones mix: after gastric 2 h plus duodenal 4 h digestion, 37 °C; for GFM (µM): flavanone in gastric digested flavanones mix: after gastric digestion 2 h, pH 2.5, 37 °C
Text: Based on the results of the preliminary antioxidant and anti-inflammatory screening (see Section 2.2), the most powerful flavanones (neohesperidin, hesperidin, neoeriocitrin, eriocitrin, and hesperetin) were selected in order to prepare a flavanones mix (FM), which was, at first instance, investigated by the same in vitro colorimetric assays (see Section 2.2) in order to evaluate its potency with respect to the single flavanones and to elucidate potential synergistic mechanisms. The following final concentration range of FM were used: FRAP (2.50–20 µM), ORAC (0.08–0.60 µM), TEAC (0.31–2.50 µM), DPPH (1.25–10 µM), ADA (5.0–40 µM), and APA (2.50–20 µM). After that, being the results of the preliminary antioxidant and anti-inflammatory screening of FM very promising, an appropriate concentration was chosen to proceed with the subsequent analyses. In particular, the FM was prepared on the assumption that digested sample, which would then be applied to the Caco-2 cells for the anti-inflammatory experiments, had to contain an equimolar concentration of the five most powerful flavanones (neohesperidin, hesperidin, neoeriocitrin, eriocitrin, and hesperetin) equal to 10 µM, which represents the mean efficacy concentration taking into account the IC50 values obtained in the preliminary antioxidant and anti-inflammatory screening of the FM. At this purpose, stock solutions (14 mM) of flavanones in DMSO were mixed and diluted 10-fold with Milli-Q water to obtain the 1.4 mM FM, which was used to carried out the in vitro simulated human digestion. In vitro gastric and duodenal digestion of FM was carried out according to Trombetta et al. with some modifications. FM solution (1.5 mL) (see Section 2.3), has been dissolved in 7.5 mL of simulated gastric solution containing 0.127 mM egg-phosphatidylcholine and adjusting the pH to 2.5, by 1 M HCl. Gastric pepsin and lipase (9000 U/mL and 60 U/mL, respectively) were added to the mixture starting the gastric digestion phase, which was protracted for 2 h at 37 °C, incubating under continuous stirring (170 rpm) by an Innova 4000 Benchtop Incubator Shaker (New Brunswick Scientific, Edison, NJ, USA). The gastric phase was stopped by the addition of 1M NaOH in order to reach a pH of 7.5, and 6 mL of the previous solution passed to the duodenal digestion phase. Duodenal solution was prepared by adding 2.10 mL of simulated bile solution (6.5 mM phosphatidylcholine, 4 mM cholesterol, 12.5 mM sodium taurocholate, and 12.5 mM sodium glycodeoxycholate) to 5.9 mL of simulated pancreatic juice containing pancreatic lipase (590 U/mL), colipase (3.2 µg/mL), trypsin (11 U/mL), α-chymotrypsin (24 U/mL), and α-amylase (300 U/mL). The duodenal mixture was incubated for 4 h under continuous stirring at 37 °C as described above. At the end, both gastric and duodenal digesta were immediately stored at −80 °C until the subsequent analyses. For quali-quantitative determination of flavanones, gastric and duodenal digesta were extracted with methanol (1:2, v/v) by mixing for 3 min. After that, samples were centrifuged at 12,000× g for 10 min, filtered by a 0.22 µm nylon syringe filter and injected into a liquid chromatograph equipped with a diode-array detector and mass spectrophotometer (LC-DAD-MS system, Agilent technologies, Santa Clara, CA, USA). The chromatographic separation was obtained using a reverse phase column Luna Omega PS C18 (150 × 2.1 mm, 5 µm; Phenomenex, Torrance, CA, USA) by using solvent A (formic acid 0.1% v/v) and solvent B (acetonitrile) as mobile phase according to the following elution gradient: 0 min, 0% B; 3–9 min, 3% B; 9–24 min, 12% B; 24–30 min, 20% B; 30–33 min, 33–43 30% B; 43–66 min 50% di B; 66–81 min 60% di B; 81–86 min 0% di B; 86–90 min 0% di B. […] UV–Vis spectra of flavanones were recorded (190–400 nm) and chromatograms were acquired at 292 nm, maximum flavanones absorption wavelength. […]

[5] = set-up: method as in PMID 19728713; settings: as compounds of a bitter orange extract; cited from earlier work
[6] = Trolox Equivalent Antioxidant Capacity (TEAC) assay
Experimental: TEAC assay was carried out according to Bazzicalupo et al.. […] Fifty microliters of each flavanone (2.0–64 µM) or trolox as reference compound (2.50–20 µM) were added to 1 mL of the TEAC reagent and incubated at RT in the dark for 6 min. The absorbance was recorded at 734 nm. Based on the results of the preliminary antioxidant and anti-inflammatory screening (see Section 2.2), the most powerful flavanones (neohesperidin, hesperidin, neoeriocitrin, eriocitrin, and hesperetin) were selected in order to prepare a flavanones mix (FM), which was, at first instance, investigated by the same in vitro colorimetric assays (see Section 2.2) in order to evaluate its potency with respect to the single flavanones and to elucidate potential synergistic mechanisms. The following final concentration range of FM were used: FRAP (2.50–20 µM), ORAC (0.08–0.60 µM), TEAC (0.31–2.50 µM), DPPH (1.25–10 µM), ADA (5.0–40 µM), and APA (2.50–20 µM). After that, being the results of the preliminary antioxidant and anti-inflammatory screening of FM very promising, an appropriate concentration was chosen to proceed with the subsequent analyses. […]

trypsin = assay: Anti-protease activity (APA), anti-tryptic activity; type: biochemical
Experimental: The anti-tryptic activity of sample was evaluated according to Smeriglio et al.. Briefly, 200 µL of each flavanone (6.25–140 µM) or diclofenac sodium as reference compound (10–80 µM) were added to 12 µL of trypsin (10 µg/mL) and 188 µL of 25 mM Tris-HCl buffer (pH 7.5). After that, 200 µL of 0.8% casein solution were added and samples incubated for 20 min at 37 °C in a water bath. After that, 400 µL of perchloric acid were added to stop the reaction. The cloudy suspension, due to the protein precipitation, was centrifuged at 3500× g for 10 min and the absorbance of the supernatant was recorded at 280 nm against a blank consisting of deionized water instead of sample. Based on the results of the preliminary antioxidant and anti-inflammatory screening (see Section 2.2), the most powerful flavanones (neohesperidin, hesperidin, neoeriocitrin, eriocitrin, and hesperetin) were selected in order to prepare a flavanones mix (FM), which was, at first instance, investigated by the same in vitro colorimetric assays (see Section 2.2) in order to evaluate its potency with respect to the single flavanones and to elucidate potential synergistic mechanisms. The following final concentration range of FM were used: FRAP (2.50–20 µM), ORAC (0.08–0.60 µM), TEAC (0.31–2.50 µM), DPPH (1.25–10 µM), ADA (5.0–40 µM), and APA (2.50–20 µM). […]

[7] = 10 µM co-treatment with IL-1β 25 ng/mL

DFM (µM): flavanone in duodenal digested flavanones mix [4]	GFM (µM): flavanone in gastric digested flavanones mix [4]	Molecule	stability after simulated in vitro digestion [5]	IC50 in comparison with reference standard trolox, TEAC [6]	other results
		C[C@@H]1C[C@H]2[C@@H]3CCC4=CC(=O)C=C[C@]4(C)[C@@]3(F)[C@@H](O)C[C@]2(C)[C@@]1(O)C(=O)CO [Dex, dexamethasone]			pro-inflammatory activity, NO release vs CTR− ([1]; 10 µM alone, without IL-1β): did not show any pro-inflammatory activity; inhibition of NO release [1, 7]: ~16%; pro-inflammatory activity, IL-8 release vs CTR− ([2]; 10 µM alone, without IL-1β): did not show any pro-inflammatory activity; inhibition of IL-8 release [2, 7]: ~66%; pro-inflammatory activity, IL-6 release vs CTR− ([3]; 10 µM alone, without IL-1β): did not show any pro-inflammatory activity; IL-6 release with respect to positive control (CTR+) [3, 7]: statistically significant decrease (p < 0.001)
8.80 ± 0.03 µM	9.05 ± 0.12 µM	C[C@@H]1O[C@@H](OC[C@H]2O[C@@H](Oc3cc(O)c4c(c3)O[C@H](c3ccc(O)c(O)c3)CC4=O)[C@H](O)[C@@H](O)[C@@H]2O)[C@H](O)[C@H](O)[C@H]1O [Eriocitrin, eriodictyol-7-O-rutinoside]			
8.76 ± 0.22 µM	9.38 ± 0.18 µM	COc1ccc(C2CC(=O)c3c(O)cc(O)cc3O2)cc1O (centres unmarked) [Hesperetin, 3′,5,7-trihydroxy-4′-methoxyflavanone]	stable after simulated in vitro digestion	a behavior comparable with the reference standard	anti-inflammatory activity less than the other tested molecules, protease inhibition (trypsin): about 4 times
		IL-1β: well-known pro-inflammatory agent used at 25 ng/mL to trigger inflammation (CTR+)			increase in NO release vs CTR− ([1]; 25 ng/mL): ~ 2.5 folds; increase in IL-8 vs CTR− ([2]; 25 ng/mL): ~ 27 folds; increase in IL-6 vs CTR− ([3]; 25 ng/mL): ~ 7 folds

Molecule	DFM (µM): flavanone in duodenal digested flavanones mix [4]	GFM (µM): flavanone in gastric digested flavanones mix [4]	stability after simulated in vitro digestion [5]	IC50 in comparison with reference standard trolox, TEAC [6]	other results
COc1ccc([C@@H]2CC(=O)c3c(O)cc(O[C@@H]4O[C@H](CO[C@@H]5O[C@@H](C)[C@H](O)[C@@H](O)[C@H]5O)[C@@H](O)[C@H](O)[C@H]4O)cc3O2)cc1O [Hesperidin, hesperetin-7-O-rutinoside]	9.86 ± 0.13 µM	9.95 ± 0.04 µM	stable after simulated in vitro digestion	a behavior comparable with the reference standard	
